Test results: ChEMBL document CHEMBL3785074, “Molecular modeling and snake venom phospholipase A2 inhibition by phenolic compounds: Structure-activity relationship” (Eur J Med Chem, 2016)
Calls of active or inactive are those of the source. No cut-off for these calls is given here.

Legend:
Daboia russelii [1] = assay: (§1) Protective activity against Daboia russellii venom-induced hemorrhage in intradermally dosed Swiss albino mouse at 100 mmol assessed as hemorhagic lesion by measuring minimal […] dose preincubated with venom for 1 hr followed by administration to mouse measured after 24 hrs (reference value: 5 ug); format: functional
[2] = Lipophilicity, log P of compound; format: physicochemical; conditions: octanol/water
Daboia russelii [3] = assay: (§2) Protective activity against Daboia russellii venom-induced mortality in Swiss albino mouse at 100 mmol, iv by measuring venom LD50 administered immediately after venom injection measured after 24 hrs (reference value: 2.28ug); format: functional
Daboia russelii [4] = assay: (§3) Protective activity against Daboia russellii venom-induced hemorrhage in Swiss albino mouse at 100 mmol, iv assessed as hemorhagic lesion by measuring […] administered immediately after venom injection measured after 24 hrs (Rvb =5 ug); format: functional
Daboia russelii [5] = test system: Daboia russelii
Naja kaouthia [6] = test system: Naja kaouthia
Naja kaouthia [7] = test system: Naja kaouthia; remark: listed apart in the source
Description: Protective activity against Naja kaouthia venom-induced mortality in Swiss albino mouse at 100 mmol, iv by measuring venom LD50 administered immediately after venom injection measured after 24 hrs (Rvb = 2.82 ug)

[8] = Protective activity against Daboia russellii venom-induced mortality by measuring venom LD50 in Swiss albino mouse at 100 mmol, iv preincubated with venom for 1 hr followed by administration to mouse measured after 24 hrs (reference value: 2.28 ug); format: functional, Daboia russelii
[9] = Protective activity against Daboia russellii venom-induced mortality in Swiss albino mouse at 100 mmol, iv preincubated with venom for 1 hr followed by administration to mouse measured after 24 hrs relative to untreated control; format: functional, Daboia russelii
[10] = Protective activity against Naja kaouthia venom-induced mortality in Swiss albino mouse at 100 mmol, iv by measuring venom LD50 preincubated with venom for 1 hr followed by administration to mouse measured after 24 hrs (reference value: 2.82 ug); format: functional
[11] = Protective activity against Naja kaouthia venom-induced mortality in Swiss albino mouse at 100 mmol, iv preincubated with venom for 1 hr followed by administration to mouse measured after 24 hrs relative to untreated control; format: functional
[12] = as §1; format: functional, Daboia russelii
[13] = Protective activity against Daboia russellii venom-induced hemorrhage in intradermally dosed Swiss albino mouse at 100 mmol assessed as hemorhagic lesion preincubated with venom for 1 hr followed by administration to mouse measured after 24 hrs relative to untreated control; format: functional, Daboia russelii
[14] = as §2; format: functional, Daboia russelii
[15] = Protective activity against Daboia russellii venom-induced mortality in Swiss albino mouse at 100 mmol, iv administered immediately after venom injection measured after 24 hrs relative to untreated control; format: functional, Daboia russelii
[16] = Protective activity against Naja kaouthia venom-induced mortality in Swiss albino mouse at 100 mmol, iv by measuring venom LD50 administered immediately after venom injection measured after 24 hrs (reference value: 2.82 ug); format: functional
[17] = Protective activity against Naja kaouthia venom-induced mortality in Swiss albino mouse at 100 mmol, iv administered immediately after venom injection measured after 24 hrs relative to untreated control; format: functional
[18] = as §3; format: functional, Daboia russelii
[19] = Protective activity against Daboia russellii venom-induced hemorrhage in Swiss albino mouse at 100 mmol, iv assessed as hemorhagic lesion administered immediately after venom injection measured after 24 hrs relative to untreated control; format: functional, Daboia russelii
Daboia russelii [20] = assay: Protective activity against Daboia russellii venom-induced mortality in iv dosed Swiss albino mouse administered immediately after venom injection relative to untreated control; format: functional, organism-based
[21] = Protective activity against Daboia russellii venom-induced mortality in iv dosed Swiss albino mouse administered 30 mins after venom injection relative to untreated control; format: functional, Daboia russelii
[22] = Protective activity against Daboia russellii venom-induced mortality in iv dosed Swiss albino mouse administered 60 mins after venom injection relative to untreated control; format: functional, Daboia russelii
Naja kaouthia [23] = assay: Protective activity against Naja kaouthia venom-induced mortality in iv dosed Swiss albino mouse assessed as administered 30 to 60 mins after venom injection; format: functional, organism-based
[24] = Protective activity against Daboia russellii venom-induced defibrinogenation in iv dosed Swiss albino mouse assessed as venom level causing blood coagulation at 100 mmol preincubated with venom for 1 hr followed by administration to mouse relative to untreated; format: functional, Daboia russelii
[25] = Protective activity against Daboia russellii venom-induced defibrinogenation in iv dosed Swiss albino mouse assessed as blood coagulation at 100 mmol administered immediately after venom injection relative to untreated control; format: functional, Daboia russelii
Daboia russelii [26] = assay: Protective activity against Daboia russellii venom-induced coagulation in goat plasma assessed as increase in plasma recalcification time at 20 mmol preincubated with venom for 1 hr followed by plasma addition; format: functional, cell-free
[27] = Protective activity against Daboia russellii venom-induced defibrinogenation in iv dosed Swiss albino mouse assessed as venom level causing blood coagulation at 100 mmol preincubated with venom for 1 hr followed by administration to mouse (reference value: 2.5 ug); format: functional, Daboia russelii
[28] = Protective activity against Daboia russellii venom-induced defibrinogenation in iv dosed Swiss albino mouse assessed as venom level causing blood coagulation at 100 mmol administered immediately after venom injection (reference value: 2.5 ug); format: functional, Daboia russelii

Row | Compound | MHC (Daboia russelii [1]) | logP ([2]; read-out: logP) | LD50 [8] [µg] | fold change (FC) [9] | LD50 [10] [µg] | fold change (FC) [11] | MHC [12] [µg] | fold change (FC) [13] | LD50 [14] [µg] | fold change (FC) [15] | LD50 [16] [µg] | fold change (FC) [17] | MHC [18] [µg] | fold change (FC) [19] | Activity (Naja kaouthia [23]) | fold change (FC) [24] | fold change (FC) [25] | Activity (Daboia russelii [26]) | Activity [27] [µg] | Activity [28] [µg] | further results
1 | O=[N+]([O-])c1ccc2c(c1)OCO2 | inactive | 1.47 |  |  |  |  |  |  |  |  |  |  |  |  |  |  |  |  |  |  | LD50 (Daboia russelii [3]): inactive; MHC (Daboia russelii [4]): inactive; LD50 (Daboia russelii [5]): inactive; LD50 (Naja kaouthia [6]): inactive; LD50 (Naja kaouthia [7]): inactive
2 | COc1ccc(C=O)c(O)c1 |  | 3.19 | 22 | 9.8 | 9 | 3.2 | 50 | 10 | 150 | 3.75 | 10 | 2 | 10 | 2 | inactive | 8.8 | 1.5 | Active | 22 | 3.5 | Activity (Daboia russelii [20]): Active; Activity [21]: 40%; Activity [22]: 10%
3 | CC(=O)Oc1ccc(C=O)c(O)c1 | inactive | 0.94 |  |  |  |  |  |  |  |  |  |  |  |  |  |  |  |  |  |  | LD50 (Daboia russelii [3]): inactive; MHC (Daboia russelii [4]): inactive; LD50 (Daboia russelii [5]): inactive; LD50 (Naja kaouthia [6]): inactive; LD50 (Naja kaouthia [7]): inactive
4 | C=CCOc1ccc(C=O)c(O)c1 |  |  | 22 | 9.8 | 9 | 3.2 | 50 | 10 | 150 | 3.75 | 10 | 2 | 10 | 2 | inactive | 2 | 1.5 | Active | 5 | 3.5 | Activity (Daboia russelii [20]): Active; Activity [21]: 40%
5 | CCCCOc1ccc(C=O)c(O)c1 |  |  | 18 | 8 | 6 | 2.1 | 140 | 8 | 150 | 3.75 | 10 | 2 | 10 | 2 | inactive | 2.4 | 1.5 | Active | 6 | 3.5 | 
6 | O=Cc1ccccc1O | inactive |  |  |  |  |  |  |  |  |  |  |  | 10 |  |  |  |  |  |  |  | 
7 | O=Cc1ccccc1 [BENZALDEHYDE] | inactive | 1.47 |  |  |  |  |  |  |  |  |  |  |  |  |  |  |  |  |  |  | LD50 (Daboia russelii [3]): inactive; MHC (Daboia russelii [4]): inactive; LD50 (Daboia russelii [5]): inactive; LD50 (Naja kaouthia [6]): inactive; LD50 (Naja kaouthia [7]): inactive
8 | COc1cccc(C=O)c1O |  |  | 25 | 11.2 | 9 | 3.2 | 50 | 10 | 150 | 3.75 | 10 | 2 | 10 | 2 | inactive | 10 | 1.5 | Active | 25 | 3.5 | logP [2]: 2.39; Activity (Daboia russelii [20]): Active; Activity [21]: 40%; Activity [22]: 10%
9 | COc1ccc(CO)c(O)c1 |  |  | 22 | 9.8 | 9 | 3.2 | 30 | 6 | 150 | 3.75 | 10 | 2 | 5 | 1 | inactive | 10 | 1.5 | Active | 25 | 3.5 | Activity (Daboia russelii [20]): Active; Activity [21]: 40%; Activity [22]: 10%
